The structures appear in SMILES notation.

Format in all cases: in vivo
Experiment [1] has as its system Diabrotica virgifera virgifera and Agriotes lineatus. As to the kind of experiment: Field test, lodge rate, clothianidin in-furrow, herbicides plus cyprosulfamide on soil (Example 7). The settings on record: clothianidin 50 g/ha in-furrow spray 125 L/ha, thiuram-treated seed, 165 days after application; example in present tense. From the text: (§1) A chemical fertilizer (N:P:K=15:15:15) is applied to the soil surface of a cultivated land at 300 kg/ha, and the cultivated land is then plowed. 7 days after fertilization, for suppressing generation of weeds, the soil surface of the whole cultivated land is spray-treated with a mixed liquid containing thiencarbazone-methyl and isoxaflutole, each of which being a herbicide, and cyprosulfamide which is a safener at 150 L/ha so that the application amounts of thiencarbazone-methyl, isoxaflutole and cyprosulfamide are 9.2 g/ha, 23 g/ha and 15 g/ha, respectively. 21 days after fertilization, using a pneumatic seeder (disk furrow opener) equipped with a power sprayer, a cultivated land is ditched at intervals of 75 cm to a depth of 5 cm from the soil surface, and the furrow is seeded with corn (Zea Mays; hybrid variety). […] 165 days after application of the aqueous suspension of clothianidin, the number of plants of corn lodged due to damage by Diabrotica virgifera virgifera and Agriotes lineatus in the furrows of the treatment section and the non-treatment section, for which the number of plants of corn germinated is investigated, is investigated, a lodge rate is calculated in accordance with the following equation, and then an average lodge rate for the four investigation sections is determined.

The test system is the same in experiment [2]. As to the kind of experiment: Field test, corn lodged due to damage by Diabrotica virgifera virgifera and Agriotes lineatus (Example 5). As to conditions: Example section 5: clothianidin 80 g/ha, in-furrow spray of Dantop 50WG 125 L/ha, corn DKC 5143 seed treated with Maxim XL, MaisTer pre-treatment, 155 days after application; non-treatment section 36. From the text:
A chemical fertilizer (N:P:K=15:15:15) was applied to the soil surface of a cultivated land at 300 kg/ha, and the cultivated land was then plowed. In order to prevent generation of weeds, 28 days after fertilization, the whole cultivated land was spraying-treated with a mixed agent (using 610 g/kg water dispersible granule, trade name: […], manufactured by Bayer CropScience) of foramsulfuron and an iodosulfuron-methyl-sodium salt, each of which being a herbicide, and a safener, isoxadifen-ethyl, at 0.15 L/ha in terms of an application amount of the preparation. 3 days after application of the preparation, using a pneumatic seeder (disk furrow opener) equipped with a power sprayer, a cultivated land was ditched at intervals of 75 cm to a depth of 5 cm from the soil surface, and the furrow was seeded with corn (variety name: DKC 5143; hybrid variety, manufactured by Monsanto). […] 155 days after application of the clothianidin water dispersible granule, the number of plants of corn lodged due to damage by Diabrotica virgifera virgifera and Agriotes lineatus in the furrows of the example section 5 and the non-treatment section, for which the number of plants of corn germinated was investigated, was investigated, a lodge rate was calculated in accordance with the following equation, and then an average lodge rate for the four investigation sections was determined. […]

Experiment [3] shares this test system. As to the kind of experiment: Field test, lodge rate, clothianidin in-furrow, seed treated with thiuram and cyprosulfamide (Example 9). As to conditions: clothianidin 50 g/ha in-furrow spray 125 L/ha, 165 days after application, example in present tense.
Excerpt: as §1, with “herbicide,” for “herbicide, and cyprosulfamide which is a safener”, “thiencarbazone-methyl and” for “thiencarbazone-methyl,”, “isoxaflutole” for “isoxaflutole and cyprosulfamide”, “9.2” for “9.2 g/ha, 23”, “23 g/ha.” for “15 g/ha, respectively.”, “variety). The furrow is seeded at intervals of 20 cm using, as a seed of corn, one treated with thiuram and cyprosulfamide. A seeding density of corn is 70000 seeds/ha.” for “variety).”

Turning to `CN/C(=N\[N+](=O)[O-])NCc1cnc(Cl)s1` [clothianidin], the “Lodge rate compared to non-treatment section” value in experiment [1] and in experiment [3] was “low lodge rate as compared to the non-treatment section” throughout. Further, in experiment [2], the “Lodge rate (%)” value stood at 0%.
